In PMC9299836 (eLife, 2022):
Several values for one entry are separate records, joined by “and”; a condition that tells them apart may be missing. Equal values may be shown once.

Experiments:
mGluR2 [1] = molecular target: mGluR2 (Mus musculus, UniProt Q14BI2, A548F); experiment: Live-cell FRET, azi-CRD (cysteine-rich domain) sensor in HEK293T cells; settings: for azi-CRD normalized FRET response, Mean / azi-CRD normalized FRET response, individual cell: Glutamate + 10μM modulator (NAM); for azi-CRD normalized FRET response, Mean: maximal response normalized to 1mM glutamate; for azi-CRD normalized FRET response, individual cell: single-cell replicate
mGluR2 (Mus musculus, UniProt Q14BI2, A548F), sequence (Q14BI2 19-872 A548F): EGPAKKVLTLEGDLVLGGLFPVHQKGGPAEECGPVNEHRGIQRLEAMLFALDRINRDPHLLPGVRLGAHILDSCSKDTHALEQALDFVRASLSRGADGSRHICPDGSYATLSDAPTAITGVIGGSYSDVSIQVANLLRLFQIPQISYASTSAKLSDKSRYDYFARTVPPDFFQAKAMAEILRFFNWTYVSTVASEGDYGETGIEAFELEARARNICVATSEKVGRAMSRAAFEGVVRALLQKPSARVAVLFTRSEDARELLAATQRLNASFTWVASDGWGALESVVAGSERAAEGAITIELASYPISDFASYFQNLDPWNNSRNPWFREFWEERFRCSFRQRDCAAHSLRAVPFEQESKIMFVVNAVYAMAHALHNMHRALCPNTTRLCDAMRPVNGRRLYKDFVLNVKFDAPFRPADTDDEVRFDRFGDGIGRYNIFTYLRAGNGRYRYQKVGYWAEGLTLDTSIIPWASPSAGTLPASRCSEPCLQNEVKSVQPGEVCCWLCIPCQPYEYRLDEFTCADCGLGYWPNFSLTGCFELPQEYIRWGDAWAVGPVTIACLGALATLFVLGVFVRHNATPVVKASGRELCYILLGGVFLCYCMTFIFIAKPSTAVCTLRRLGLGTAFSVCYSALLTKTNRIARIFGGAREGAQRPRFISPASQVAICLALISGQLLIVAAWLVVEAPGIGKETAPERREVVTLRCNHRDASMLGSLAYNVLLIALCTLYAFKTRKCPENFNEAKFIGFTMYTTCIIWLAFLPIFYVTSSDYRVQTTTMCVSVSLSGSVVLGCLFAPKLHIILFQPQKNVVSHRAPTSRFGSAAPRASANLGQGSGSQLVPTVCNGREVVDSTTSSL

mGluR2 [2] = molecular target: T1, mGluR2 (Mus musculus, UniProt Q14BI2); experiment: Live-cell FRET, SNAP-m2 (VFT domain) inter-subunit sensor in HEK293T cells; settings: for Mean normalized FRET response, SNAP-m2 NAM DRC: glutamate + 10μM modulator, maximal response normalized to 1mM glutamate;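 on all read-outs here: apparent FRET efficiency from whole-membrane ROIs of single cells, corrected for donor bleed-through and background, ΔFRET as treatment minus pretreatment signal, recorded at room temperature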
T1 sequence (Q14BI2 19-872): as the sequence (Q14BI2 19-872 A548F) above, with F530A counted along it

mGluR2 [3] = molecular target: mGluR2 (Mus musculus, UniProt Q14BI2, INS715F); experiment: Live-cell FRET, azi-ECL2 (7TM domain, extracellular loop 2) sensor in HEK293T cells; settings: for Mean normalized azi-ECL2 FRET response: glutamate + 10μM modulator, maximal response normalized to 1mM glutamate;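 on all read-outs here: Cy3/Cy5 click-labeled sensor, whole-membrane ROIs per cell, apparent FRET after bleed-through correction, ΔFRET as treatment minus pre-treatment signal, at room temperature, at least three biological replicates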
mGluR2 (Mus musculus, UniProt Q14BI2, INS715F), sequence (Q14BI2 with tags, fused parts or gaps INS715F): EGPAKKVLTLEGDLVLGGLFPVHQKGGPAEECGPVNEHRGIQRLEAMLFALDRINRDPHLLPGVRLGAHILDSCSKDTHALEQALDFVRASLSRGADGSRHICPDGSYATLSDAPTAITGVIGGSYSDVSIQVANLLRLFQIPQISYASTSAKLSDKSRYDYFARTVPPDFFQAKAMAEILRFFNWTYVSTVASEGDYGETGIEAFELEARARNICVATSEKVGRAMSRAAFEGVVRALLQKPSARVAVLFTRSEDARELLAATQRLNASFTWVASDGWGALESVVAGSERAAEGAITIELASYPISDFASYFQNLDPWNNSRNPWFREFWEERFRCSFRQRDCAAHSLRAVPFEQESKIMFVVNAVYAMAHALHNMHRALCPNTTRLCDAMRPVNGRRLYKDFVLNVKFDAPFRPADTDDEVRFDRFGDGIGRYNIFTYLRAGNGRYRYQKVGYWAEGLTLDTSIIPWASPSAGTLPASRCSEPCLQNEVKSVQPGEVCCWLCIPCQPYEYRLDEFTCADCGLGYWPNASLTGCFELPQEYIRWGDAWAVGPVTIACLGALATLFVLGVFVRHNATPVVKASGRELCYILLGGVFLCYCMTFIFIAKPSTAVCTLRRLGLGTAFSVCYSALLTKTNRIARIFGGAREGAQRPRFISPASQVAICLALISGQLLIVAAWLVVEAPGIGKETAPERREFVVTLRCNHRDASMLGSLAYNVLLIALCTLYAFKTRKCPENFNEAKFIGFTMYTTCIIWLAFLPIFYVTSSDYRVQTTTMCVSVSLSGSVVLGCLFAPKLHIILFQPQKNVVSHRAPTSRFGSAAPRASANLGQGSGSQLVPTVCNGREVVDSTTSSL

mGluR2 [4] = molecular target: T1, mGluR2; experiment: Functional calcium imaging, SNAP-mGluR2 (no FLAG-tag) with chimeric G protein Gqo5 in HEK293T cells; assay type: cell-based; design: Full length mGluR2 construct with an amber codon (TAG) mutation of amino acid A548 (azi-CRD) or N-terminal SNAP-tag (SNAP-mGluR2); host or cells: HEK293T; settings: for Intracellular Ca2+ Response (normalized to 1mM glutamate), Mean: Glutamate + 90nM Ro 64-5229
[5] = 10μM Ro 64-5229, ([1 mM glutamate + modulator] - [1 mM glutamate]) × 100

For `Clc1cccc(Cl)c1/C(=C/n1cncn1)OC1CCCCCC1` [Ro 64–5229], the “azi-CRD - ΔEfficacy, Mean ΔEfficacy” value (mGluR2 [1]; [5]) was -41.4006, the “azi-CRD - ΔEfficacy, individual cell responses” value (mGluR2 [1]; 10μM Ro 64-5229, single cells) was -28.0702 and -27.0053 and -21.7759 and -17.8571 and -54.2848 and -56.1085 and -49.8998 and -39.7625 and -52.6646 and -45.8685 and -32.6644 and -42.4305 and -51.9931 and -35.5526 and -41.2702 and -37.27 and -50.0412 and -60.6915 and the “azi-CRD normalized FRET response, Mean” value (mGluR2 [1]; log[Glutamate] (M) -3) was 0.586. The “azi-CRD normalized FRET response, individual cell” value (mGluR2 [1]; log[Glutamate] (M) -3) was 0.586, the “azi-CRD normalized FRET response, Mean” value (mGluR2 [1]; log[Glutamate] (M) -4.1549) was 0.5093 and the “azi-CRD normalized FRET response, individual cell” value (mGluR2 [1]; log[Glutamate] (M) -4.1549) was 0.5346 and 0.4622 and 0.5203 and 0.5084 and 0.5826 and 0.5517 and 0.4974 and 0.5062 and 0.5143 and 0.4926 and 0.4963 and 0.4643 and 0.4905. For the same compound, the “azi-CRD normalized FRET response, Mean” value (mGluR2 [1]; log[Glutamate] (M) -4.52288) was 0.3977, the “azi-CRD normalized FRET response, individual cell” value (mGluR2 [1]; log[Glutamate] (M) -4.52288) was 0.3335 and 0.3611 and 0.3991 and 0.4165 and 0.5072 and 0.4352 and 0.378 and 0.3755 and 0.3785 and 0.4157 and 0.3821 and 0.3693 and 0.4189 and the “azi-CRD normalized FRET response, Mean” value (mGluR2 [1]; log[Glutamate] (M) -5) was 0.2248. For the same compound, the “azi-CRD normalized FRET response, individual cell” value (mGluR2 [1]; log[Glutamate] (M) -5) was 0.1496 and 0.3033 and 0.2652 and 0.2455 and 0.317 and 0.2125 and 0.1682 and 0.183 and 0.1871 and 0.1831 and 0.172 and 0.2951 and 0.2409, the “azi-CRD normalized FRET response, Mean” value (mGluR2 [1]; log[Glutamate] (M) -5.39794) was 0.1255 and the “azi-CRD normalized FRET response, individual cell” value (mGluR2 [1]; log[Glutamate] (M) -5.39794) was 0.1184 and 0.1898 and 0.1288 and 0.1204 and 0.1285 and 0.1251 and 0.1085 and 0.1183 and 0.1305 and 0.09889 and 0.1192 and 0.1155 and 0.1302. The “azi-CRD normalized FRET response, Mean” value (mGluR2 [1]; log[Glutamate] (M) -5.82391) was 0.06192, the “azi-CRD normalized FRET response, individual cell” value (mGluR2 [1]; log[Glutamate] (M) -5.82391) was 0.04987 and 0.1052 and 0.0682 and 0.05385 and 0.04969 and 0.05654 and 0.05788 and 0.05365 and 0.05774 and 0.05311 and 0.05405 and 0.04746 and 0.09767 and the “azi-CRD normalized FRET response, Mean” value (mGluR2 [1]; log[Glutamate] (M) -6.52288) was 0.03074. For the same compound, the “azi-CRD normalized FRET response, individual cell” value (mGluR2 [1]; log[Glutamate] (M) -6.52288) was 0.03117 and 0.03301 and 0.02778 and 0.02217 and 0.02741 and 0.0634 and 0.03617 and 0.02751 and 0.02353 and 0.01178 and 0.01113 and 0.04333 and 0.04124, the “azi-CRD normalized FRET response, Mean” value (mGluR2 [1]; log[Glutamate] (M) -7) was 0 and the “azi-CRD normalized FRET response, individual cell” value (mGluR2 [1]; log[Glutamate] (M) -7) was 0. For the same compound, the “Hill slope of glutamate titration” value (mGluR2 [1]; azi-CRD sensor, + 10 μM modulator) was 1.05, the “Live-cell FRET max response normalized to 1mM glutamate” value (mGluR2 [1]; azi-CRD sensor, Glutamate + 10μM Ro 64-5229, individual values (N=18)) was 0.4572 and 0.4389 and 0.501 and 0.6024 and 0.4733 and 0.5413 and 0.6734 and 0.5757 and 0.4801 and 0.6445 and 0.5873 and 0.6273 and 0.4996 and 0.3931 and 0.7193 and 0.7299 and 0.7822 and 0.8214 and the “Mean max response (normalized max ΔFRET)” value (mGluR2 [1]; azi-CRD, 1 mM glutamate + 10 μM modulator, normalized to 1 mM glutamate) was 0.59. For the same compound, the “Mean ΔPotency” value (mGluR2 [1]; azi-CRD, 10μM modulator, (([modulator + glutamate]EC50 – [glutamate] EC50)/[glutamate] EC50) × 100) was 46.1673, the “ΔPotency, individual cell” value (mGluR2 [1]; azi-CRD, 10μM modulator, calculated from individual cell responses) was 111.788 and 54.4953 and 84.4604 and 80.2661 and 72.5435 and 46.8592 and 26.2598 and 27.1246 and 2.91 and 18.4766 and 20.2062 and -17.7582 and the “SNAP-m2 - ΔEfficacy, Mean ΔEfficacy” value (mGluR2 [2]; [5]) was -12.5077. The “Mean max response (normalized max ΔFRET)” value (mGluR2 [2]; SNAP-m2, 1 mM glutamate + 10 μM modulator, normalized to 1 mM glutamate) was 0.87, the “Mean ΔPotency” value (mGluR2 [2]; SNAP-m2, 10μM modulator, (([modulator + glutamate]EC50 – [glutamate] EC50)/[glutamate] EC50) × 100) was 64.9494 and the “Mean ΔEfficacy” value (mGluR2 [2]; SNAP-m2, 10μM modulator, ([1 mM glutamate + modulator] - [1 mM glutamate]) × 100) was -12.5077. For the same compound, the “Hill slope of glutamate titration” value (mGluR2 [2]; SNAP-m2 sensor, + 10 μM modulator) was “–1.52”, the “Mean normalized FRET response, SNAP-m2 NAM DRC” value (shortened to “Mean normalized FRET response”) (mGluR2 [2]; log[Glutamate] (M) -3) was -0.8749 and the “Mean normalized FRET response” value (mGluR2 [2]; log[Glutamate] (M) -4.1549) was -0.7502. For the same compound, the “Mean normalized FRET response” value (mGluR2 [2]; log[Glutamate] (M) -4.52288) was -0.5932, the “Mean normalized FRET response” value (mGluR2 [2]; log[Glutamate] (M) -5) was -0.2293 and the “Mean normalized FRET response” value (mGluR2 [2]; log[Glutamate] (M) -5.39794) was -0.07065. For the same compound, the “Mean normalized FRET response” value (mGluR2 [2]; log[Glutamate] (M) -5.82391) was -0.0217, the “Mean normalized FRET response” value (mGluR2 [2]; log[Glutamate] (M) -6.52288) was 0 and the “Mean normalized FRET response” value (mGluR2 [2]; log[Glutamate] (M) -7) was 0. The “Mean normalized FRET response” value (mGluR2 [2]; log[Glutamate] (M) -7.69897) was 0, the “Mean normalized FRET response” value (mGluR2 [2]; log[Glutamate] (M) -4.69897) was -0.4605 and the “azi-ECL2 - ΔEfficacy, Mean ΔEfficacy” value (mGluR2 [3]; [5]) was -16.382. The “Mean ΔPotency” value (mGluR2 [3]; 10μM modulator, (([modulator + glutamate]EC50 – [glutamate] EC50)/[glutamate] EC50) × 100) was 238.581, the “ΔPotency, individual cell responses” value (mGluR2 [3]; 10μM modulator, single cells, (([modulator + glutamate]EC50 – [glutamate] EC50)/[glutamate] EC50) × 100) was 105.749 and 188.087 and 277.044 and 382.546 and 239.476 and the “ΔEfficacy, individual cell responses” value (mGluR2 [3]; 10μM modulator, single cells, ([1 mM glutamate + modulator] - [1 mM glutamate]) × 100) was -3.67 and -2.778 and -15 and -26.6667 and -29.3756 and -15.3219 and -1.127 and -37.1174. The “Mean max response (normalized max ΔFRET)” value (mGluR2 [3]; azi-ECL2, 1 mM glutamate + 10 μM modulator, normalized to 1 mM glutamate) was 0.84, the “Hill slope of glutamate titration” value (mGluR2 [3]; azi-ECL2 sensor, + 10 μM modulator) was 1.07 and the “Live-cell FRET max response normalized to 1mM glutamate” value (mGluR2 [3]; azi-ECL2 sensor, Glutamate + 10μM Ro 64-5229, individual values (N=8)) was 0.7062 and 0.8468 and 0.9887 and 0.6288 and 0.9633 and 0.9722 and 0.85 and 0.7333. The “Mean normalized azi-ECL2 FRET response” value (mGluR2 [3]; log[Glutamate] (M) -3) was 0.8362, the “Mean normalized azi-ECL2 FRET response” value (mGluR2 [3]; log[Glutamate] (M) -4.1549) was 0.6516 and the “Mean normalized azi-ECL2 FRET response” value (mGluR2 [3]; log[Glutamate] (M) -4.52288) was 0.5392. For the same compound, the “Mean normalized azi-ECL2 FRET response” value (mGluR2 [3]; log[Glutamate] (M) -5) was 0.3248, the “Mean normalized azi-ECL2 FRET response” value (mGluR2 [3]; log[Glutamate] (M) -5.39794) was 0.1335 and the “Mean normalized azi-ECL2 FRET response” value (mGluR2 [3]; log[Glutamate] (M) -5.82391) was 0.04706. For the same compound, the “Mean normalized azi-ECL2 FRET response” value (mGluR2 [3]; log[Glutamate] (M) -6.52288) was 0, the “Mean normalized azi-ECL2 FRET response” value (mGluR2 [3]; log[Glutamate] (M) -7) was 0 and the “Mean normalized azi-ECL2 FRET response” value (mGluR2 [3]; log[Glutamate] (M) -7.69897) was 0. The “Mean normalized azi-ECL2 FRET response” value (mGluR2 [3]; log[Glutamate] (M) -4.69897) was 0.5381, the “Effect on receptor activation (calcium imaging) in the presence of glutamate” value (mGluR2 [4]; 10 μM NAM) was “block receptor activation” and the “Intracellular Ca2+ Response, % 1mM Glutamate” value (mGluR2 [4]; 1mM Glutamate + 90nM Ro 64-5229, individual experiments) was 79.692% and 78.096% and 66.28%. The “Mean ΔEfficacy of glutamate” value (mGluR2 [4]; Ca2+ response, 1 mM glutamate + 90 nM modulator, ([1 mM glutamate + modulator] - [1 mM glutamate]) × 100) was -25.3109, the “ΔEfficacy of glutamate, individual experiments” value (mGluR2 [4]; Ca2+ response, 1 mM glutamate + 90 nM modulator, single replicate) was -21.9043 and -33.7198 and -20.3084 and the “Mean ΔPotency of glutamate” value (mGluR2 [4]; Ca2+ response, glutamate + 90 nM modulator, (([modulator + glutamate]EC50 – [glutamate]EC50)/[glutamate]EC50) × 100) was 160.286. The “ΔPotency of glutamate, individual experiments” value (mGluR2 [4]; Ca2+ response, glutamate + 90 nM modulator, single replicate) was 46.8661 and 141.491 and 292.502, the “Intracellular Ca2+ Response (normalized to 1mM glutamate), Mean” value (mGluR2 [4]; log[Glutamate] (M) -3) was 0.7469 and the “Intracellular Ca2+ Response (normalized to 1mM glutamate), Mean” value (mGluR2 [4]; log[Glutamate] (M) -3.60206) was 0.7222. The “Intracellular Ca2+ Response (normalized to 1mM glutamate), Mean” value (mGluR2 [4]; log[Glutamate] (M) -4.1549) was 0.5737, the “Intracellular Ca2+ Response (normalized to 1mM glutamate), Mean” value (mGluR2 [4]; log[Glutamate] (M) -4.52288) was 0.2233 and the “Intracellular Ca2+ Response (normalized to 1mM glutamate), Mean” value (mGluR2 [4]; log[Glutamate] (M) -5) was 0.1471. The “Intracellular Ca2+ Response (normalized to 1mM glutamate), Mean” value (mGluR2 [4]; log[Glutamate] (M) -5.39794) was 0, the “Intracellular Ca2+ Response (normalized to 1mM glutamate), Mean” value (mGluR2 [4]; log[Glutamate] (M) -5.82391) was 0 and the “Intracellular Ca2+ Response (normalized to 1mM glutamate), Mean” value (mGluR2 [4]; log[Glutamate] (M) -6.52288) was 0. The “Intracellular Ca2+ Response (normalized to 1mM glutamate), Mean” value (mGluR2 [4]; log[Glutamate] (M) -7) was 0.
